The test system of one assay is proAR. Description: Flow cytometric analysis of cell surface proAR (proAR shedding). Particulars: for cell surface content of endogenous proAR after agonist treatment: head and neck cancer cells, LPA 10 μM. The assay is classed as cell-based, human. The procedure:
(§1) FIG. 1 GPCR stimulation of the EGFR Involves a ligand-dependent mechanism and is accompanied by AR release from the cell surface. a, EGFR signal transactivation requires metalloprotease activity and the EGFR extracellular domain. SCC-9 cells were pre-incubated with marimastat (BB2516, 10 μM; 20 min), anti-EGFR antibody ICR-3R (20 μg/mL; 60 min) or PTX (100 ng/mL; 18 h) and treated with LPA (10 μM), carbachol (Car, 1 mM), EGF (7.5 ng/mL) or pervanadate (PV, 1 mM) for 3 min. Following immunoprecipitation (IP) of cell extracts with anti-EGFR antibody proteins were immunoblotted (IB) with anti-phosphotyrosine antibody and re-probed with anti-EGFR antibody. b, Flow cytometric analysis of EGF-like precursor expression. SCC-9 cells were collected and stained for surface HB-EGF, TGFa or AR and analyzed by flow cytometry. Control cells were labelled with FITC-conjugated secondary antibody alone. c, LPA-induced proteolytic processing of proAR. SCC-9 cells were pre-incubated with batimastat (BB94, 10 μM) or PTX and stimulated with LPA or TPA (1 μM) for 5 min. Cells were collected and analyzed for cell surface AR density by flow cytometry. d, GPCR-induced proteolytic release of AR. SCC-9 cells were pre-incubated with batimastat or vehicle followed by stimulation with agonists as indicated for 120 min. Conditioned medium was collected and analyzed for total AR amount by ELISA. Each bar is the average of triplicate values (mean±s.d.). *, P<0.03 for the difference between agonists vs. BB94+agonists.
(§2) ACS analysis was performed as described before (1). Cells were stained with ectodomain-specific antibodies against HB-EGF, AR (R&D Systems) or TGFa (Oncogene, Boston; Mass.). After washing with PBS, cells were incubated with FITC-conjugated secondary antibody and analyzed on a Becton Dickinson FACScalibur flow cytometer.
A general note: A flow cytometer gives signals particle by particle.

The next assay concerns proHB-EGF. Description: Flow cytometric analysis of proHB-EGF ectodomain cleavage. The assay is classed as cell-based, human. Particulars: HNSCC cells; data not shown. As for the experimental part: as §2
The subject of a further assay is proTGFα. The assay can be described thus: Flow cytometric analysis of proTGFα ectodomain cleavage. Particulars: HNSCC cells; data not shown. It is filed as cell-based, human. As for the experimental part: as §2
The test system of the next assay is amphiregulin (AR). The assay can be described thus: AR release into cell culture medium (sandwich ELISA). The assay is classed as cell-based, human. Particulars: SCC-9 cells; compared to LPA stimulation. As for the experimental part:
as §1, with “SCC-9 cells were pre-incubated with batimastat (BB94, 10 μM) or PTX and stimulated with LPA or TPA (1 μM) for 5 min.” left out, “SCC-9 cells were pre-incubated with batimastat or vehicle followed by stimulation with agonists as indicated for 120 min.” left out, “Each bar is the average of triplicate values (mean±s.d.). *, P<0.03 for the difference between agonists vs. BB94+agonists.” left out
Concentrations of free AR were determined by sandwich ELISA (R&D Systems) using monoclonal anti-AR capture antibody and biotinylated polyclonal detection antibody. […] Values are expressed as mean±s.d. of at least triplicate samples. […]
A general note: An ELISA detects its analyte on a solid surface through an enzyme-linked reagent.

The test system of the next assay is EGFR. Description: EGFR tyrosine phosphorylation / EGFR signal transactivation (IP with anti-EGFR, anti-phosphotyrosine immunoblot). The assay is classed as cell-based, human. Particulars: for GPCR-induced EGFR tyrosine phosphorylation (EGFR transactivation signal): SCC-9 cells, stimulation with LPA or carbachol. The procedure: as §1
FIG. 2 GPCR stimulation requires AR to trigger EGFR-dependent signals and biological responses. a, Blockade of EGF-like growth factor precursor expression by RNA interference (RNAi). SCC-9 cells were transfected with siRNA for proAR, proHB-EGF or proTGFα cultured for 2 days and analyzed for gene expression by RT-PCR as indicated or b, stimulated with LPA or carbachol and assayed for EGFR tyrosine phosphorylation content. c, Requirement of AR for LPA-induced cell migration. SIRNA-transfected SCC-9 cells were analyzed for transwell migration toward fibronectin as chemoattractant. Each bar is the average of quadruplicate values (mean±s.d.). *, P<0.001 for control siRNA+LPA vs. proAR siRNA+LPA. d, Effect of anti-AR neutralizing antibody and heparin on GPCR-induced EGFR and SHC tyrosine phosphorylation. […] Phosphorylated ERK1/2 was detected by immunoblotting total lysates with anti-phospho-ERK antibody. […] Quantitative analysis of ERK phosphorylation from three independent experiments (mean±s.d.). *, P<0.05 for the difference between LPA vs. inhibitors+LPA. […] Cells were then pulse-labelled with ^3H-thymidine and thymidine incorporation was measured by liquid-scintillation counting. Quantitative analysis from three independent experiments (mean±s.d.). *, P<0.001 for LPA vs. inhibitors+LPA. […]
(In western blotting, separated proteins are transferred to a membrane and probed.)

For a further assay, the system named is SCC-15 cells. Description: 3H-thymidine incorporation assay (DNA synthesis). It is filed as cell-based, human. Particulars: 18 h. The source says: (§3) FIG. 2 GPCR stimulation requires AR to trigger EGFR-dependent signals and biological responses. a, Blockade of EGF-like growth factor precursor expression by RNA interference (RNAi). SCC-9 cells were transfected with siRNA for proAR, proHB-EGF or proTGFα cultured for 2 days and analyzed for gene expression by RT-PCR as indicated or b, stimulated with LPA or carbachol and assayed for EGFR tyrosine phosphorylation content. c, Requirement of AR for LPA-induced cell migration. SIRNA-transfected SCC-9 cells were analyzed for transwell migration toward fibronectin as chemoattractant. […] Phosphorylated ERK1/2 was detected by immunoblotting total lysates with anti-phospho-ERK antibody. […] Quantitative analysis of ERK phosphorylation from three independent experiments (mean±s.d.). *, P<0.05 for the difference between LPA vs. inhibitors+LPA. […] Cells were then pulse-labelled with ^3H-thymidine and thymidine incorporation was measured by liquid-scintillation counting. Quantitative analysis from three independent experiments (mean±s.d.). *, P<0.001 for LPA vs. inhibitors+LPA.
For the ^3H-thymidine incorporation assay (5), SCC-15 cells were seeded into 12-well plates at 3×10^4 cells/well. […] After 18 h cells were pulse-labelled with ^3H-thymidine (1 μCi/ml) for 4 h, and thymidine incorporation was measured by trichloroacetic acid precipitation and subsequent liquid-scintillation counting.

The target in a further assay is TACE (Homo sapiens, UniProt P78536). Particulars: reference (25); cited from earlier work.
For a further assay, the system named is ERK1/2. Description: ERK/MAPK activation (anti-phospho-ERK immunoblot). It is filed as cell-based, human. Particulars: SCC-9 and SCC-15 cells.
Text: as §3
Cells were lysed and proteins immunoprecipitated as described (13). […] Phosphotyrosine was detected with the 4G10 monoclonal antibody (UBI, Lake Placid, N.Y.). […]

A further assay concerns Akt/PKB. The assay can be described thus: Akt/PKB phosphorylation (anti-phospho-Akt immunoblot). The assay is classed as cell-based, human. Particulars: head and neck cancer cells.

TACE, sequence (P78536 215-824): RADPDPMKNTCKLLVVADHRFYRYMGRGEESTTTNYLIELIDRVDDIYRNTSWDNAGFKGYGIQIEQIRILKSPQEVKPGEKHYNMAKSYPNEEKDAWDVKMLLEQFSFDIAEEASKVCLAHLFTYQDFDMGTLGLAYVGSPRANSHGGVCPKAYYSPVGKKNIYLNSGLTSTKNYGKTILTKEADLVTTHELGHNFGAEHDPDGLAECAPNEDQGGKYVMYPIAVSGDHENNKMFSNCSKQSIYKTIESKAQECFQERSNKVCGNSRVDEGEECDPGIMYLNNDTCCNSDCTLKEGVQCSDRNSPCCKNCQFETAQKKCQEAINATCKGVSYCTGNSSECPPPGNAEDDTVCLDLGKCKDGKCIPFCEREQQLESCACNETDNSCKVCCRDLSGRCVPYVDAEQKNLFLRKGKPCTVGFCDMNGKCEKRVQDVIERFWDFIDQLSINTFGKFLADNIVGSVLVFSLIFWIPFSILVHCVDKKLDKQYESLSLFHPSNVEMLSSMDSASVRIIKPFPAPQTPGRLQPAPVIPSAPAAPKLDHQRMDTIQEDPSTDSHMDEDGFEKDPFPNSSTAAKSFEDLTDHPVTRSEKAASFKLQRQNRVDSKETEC

With `CCCCCCCCCCCCCC(=O)O[C@@H]1[C@@H](C)[C@@]2(O)[C@@H](C=C(CO)C[C@]3(O)C(=O)C(C)=C[C@@H]23)[C@@H]2C(C)(C)[C@]12OC(C)=O` [TPA], the “cell surface content of endogenous proAR after agonist treatment” value in the assay on proAR (TPA 1 µM as printed) is given as “reduced”. Further, the “proteolytic (ectodomain) cleavage of proHB-EGF by agonist” value with proHB-EGF is “resulted in ectodomain cleavage”. In addition, in the assay with proTGFα, the “proteolytic (ectodomain) cleavage of proTGFα by agonist” value is “resulted in ectodomain cleavage”.
With `C[N+](C)(C)CCOC(N)=O` [carbachol], the “AR release in response to agonist” value in the assay on amphiregulin (AR) is reported as “substantially lower compared to LPA stimulation”.
Consider `CNC(=O)[C@@H](NC(=O)[C@H](CC(C)C)[C@H](O)C(=O)NO)C(C)(C)C` [marimastat], for which the “GPCR-induced EGFR tyrosine phosphorylation (EGFR transactivation signal)” value in the assay on EGFR was “sensitive”.
`COc1cc2ncnc(Nc3cccc(Cl)c3)c2cc1OC` [tyrphostin AG1478]: the “DNA synthesis triggered by LPA” value in the assay on SCC-15 cells is recorded as “decreased DNA synthesis by LPA to below basal level”.
For the molecule “Timp-1: human Timp-1; ectopic expression by retroviral transduction”, the “proteolytic activity of TACE in vitro” value with TACE is “not”. Moreover, the “GPCR-induced EGFR tyrosine phosphorylation (EGFR transactivation signal)” value in the assay with EGFR is given as “not”.
As for heparin, the “LPA-induced ERK activation” value in the assay with ERK1/2 is listed as “prevented”. The “LPA-induced EGFR tyrosine phosphorylation (EGFR signal transactivation)” value with EGFR (LPA 10 μM, 3 min, SCC-9 (anti-AR also SCC-4, SCC-15, SCC-25)) is “completely blocked”.
Consider lysophosphatidic acid [LPA], for which the “cell surface content of endogenous proAR after agonist treatment” value with proAR (TPA 1 µM) is “reduced”. In addition, in the assay with proHB-EGF, the “proteolytic (ectodomain) cleavage of proHB-EGF by agonist” value is “not able to induce”. In the assay with Akt/PKB, the “phosphorylation of Akt/PKB at Ser-473 by agonist” value is “markedly increased”. Further, the “proteolytic (ectodomain) cleavage of proTGFα by agonist” value in the assay on proTGFα is listed as “not able to induce”.
With pertussis toxin [PTX], in the assay on proAR (SCC-9 cells, batimastat 10 μM, PTX 100 ng/mL), the “LPA-induced ectodomain cleavage (shedding) of proAR” value is “partially inhibited”.

B1: Timp-3: tissue inhibitor of metalloprotease-3; ectopic expression by retroviral transduction (protein)
chain: CTCSPSHPQDAFCNSDIVIRAKVVGKKLVKEGPFGTLVYTIKQMKMYRGFTKMPHVQYIHTEASESLCGLKLEVNKYQYLLTGRVYDGKMYTGLCNFVERWDQLTLSQRKGLNYRYHLGCNCKIKSCYYLPCFVTSKNECLWTDMLSNFGYPGYQSKHYACIRQKGGYCSWYRGWAPPDKSIINATDP
modifications: left off: small tags and cut ends
notes: ectopic expression by retroviral transduction
B1: the “proteolytic activity of TACE in vitro” value with TACE is “inhibited”. In addition, the “GPCR-induced EGFR tyrosine phosphorylation (EGFR transactivation signal)” value in the assay on EGFR is reported as “inhibited”.

The record behind these values is patent publication US7524495B2, “Inhibition of TACE or amphiregulin for the modulation of EGF receptor signal transactivation” (Max-Planck-Gesellschaft zur Foerderung der Wissenschaften …, priority 2003, dated 2009).
